Where two headings read alike, the source gives them in different places.
How the values were obtained:
MCF-12A cells = test: Cell proliferation assay (label-free live cell counting), MCF-12A; format: cell-based, human; conditions: for logIC50 ± SEM: n = 4
MDA-MB-231 breast tumors = test: Subcutaneous in vivo breast cancer xenograft study, tumor growth; set-up: species or system mice; conditions: i.p. 5 consecutive days, Pd2Spm 5 mg/kg/day, cisplatin 2 mg/kg/day; for tumor growth reduction (versus the vehicle group): end of experiment (day 39 post-implantation); for average tumor volumes compared to vehicle-treated control mice: p < 0.05
Procedure: Female CBA nude (N:NIH(S)II-nu/nu) mice (6–7 weeks old, 21 animals in total) with combined immunodeficiency were purchased from i3S Animal Facility (Porto, Portugal). Animals were acclimatized at ICBAS-UP Rodent Animal House Facility (Porto, Portugal) at least one week prior to the experiments, were randomly distributed into groups of three per individually ventilated cage and were housed under controlled specific-pathogen-free (SPF) environmental conditions (temperature 22.5 ± 1.5 °C; relative humidity 50 ± 10%; 12 h light/dark cycle) with ad libitum access to water and standard pellet food (4RF21, Mucedola, Italy). Environmental enrichment included corncob bedding, paper roll tube and one large sheet of tissue paper for nesting. Animals were monitored daily for health status and welfare.

[1] = test system: VEGF secretion by MDA-MB-231 cells; test: VEGF production, Human VEGF Quantikine ELISA of cell culture medium; format: cell-based; conditions: MDA-MB-231, 5–20 µM, 12 h
Procedure: MDA-MB-231 cells were seeded in 96-well microplates at the cell density 1.5 × 10^4 cells/cm^2 (final volume 200 µL/well) and left 24 h to attach. […] VEGF concentration in cell culture medium was determined in undiluted samples in duplicate using the Human VEGF Quantikine ELISA Kit (R&D Systems Inc., Minneapolis, MN, USA) according to the manufacturer’s protocol. In brief, 200 μL of conditioned media was added to a 96-well microplate pre-coated with monoclonal antibody for human VEGF and the plate was incubated for 2 h. After washing with wash buffer, enzyme-linked polyclonal antibody specific for human VEGF was added, followed by incubation for 2 h. The plate was washed to remove unbound antibody-enzyme reagent, substrate solution was added and incubated for 30 min and the reaction was terminated by the addition of the stop solution, producing a yellow solution. The optical density at 450 nm with wavelength correction at 540 nm was measured using a Synergy HT microplate reader (BioTek, Winooski, VT, USA). The concentration of VEGF was interpolated from the standard curve (15.6–1000 pg/mL) prepared in parallel.

[2] = test system: Ehrlich ascites carcinoma (EAC); conditions: 4 mg/kg, cited from earlier work; for tumor volume reduction: two injections per week for 2 weeks (cumulative 16 mg/kg); for deaths during treatment: two injections per week for 2 weeks
[3] = Tolerability in tumor-bearing mice (body weight, behavior, relative organ weight, histopathology, deaths)
[4] = Hematological and plasma biochemical analyses in tumor-bearing mice; format: in vivo; conditions: Pd2Spm 5 mg/kg/day, cisplatin 2 mg/kg/day, end of study
Procedure: Red blood cells (RBC), hemoglobin (Hb), hematocrit (Hct), mean corpuscular volume (MCV) and mean corpuscular hemoglobin (MCH) were analyzed in a small aliquot of whole blood using ABX Micros 60 automated analyzer (Horiba ABX SAS, Montpellier, France). The remaining blood was centrifuged at 900× g for 15 min, and plasma was separated into aliquots and frozen at −80 °C for biochemical assays. Plasma parameters were analyzed using commercial kits for aspartate aminotransferase—AST (AST CP, A11A01629), alanine transaminase—ALT (ALT CP, A11A01627), cholesterol (CHOL CP, A11A01634), creatinine (Creatinine 120 CP, A11A01868), glucose (Glucose PAP CP, A11A01668), total protein (Total protein CP, A11A01669), triglycerides (Triglycerides CP, A11A01640) and urea (Urea CP, A11A01641). All parameters were determined with an automated analyzer Pentra 400 (ABX Horiba diagnostics, Montpellier, France).

breast cancer cells = conditions: cited from earlier work
[5] = mice; cited from earlier work
MDA-MB-231 = conditions: cited from earlier work
MDA-MB-468 TNBC cells = conditions: cited from earlier work
[6] = 48 h of incubation, n = 4, read-out: IC50 in µM [95% CI]
[7] = 72 h of incubation, n = 4, read-out: IC50 in µM [95% CI]
[8] = Pd2Spm 5 mg/kg/day, cisplatin 2 mg/kg/day
[9] = tumor-bearing mice, i.p. 5 days, Pd2Spm 5 mg/kg/day, cisplatin 2 mg/kg/day
[10] = organ weight/body weight × 100%, mean ± SEM, n = 7, cisplatin 2 mg/kg/day, Pd2Spm 5 mg/kg/day

In the case of `N.N.[Cl][Pt][Cl]` [Cisplatin, cis-dichlorodiammine platinum(II), reference compound], the “logIC50 ± SEM” value (MCF-12A cells; 24 h of incubation) is reported as −5.510 ± 0.062, the IC50 (MCF-12A cells; 24 h of incubation, n = 4, read-out: IC50 in µM [95% CI]) is reported as 3.1 µM and the “logIC50 ± SEM” value (MCF-12A cells; 48 h of incubation) is reported as −5.988 ± 0.029. The IC50 (MCF-12A cells; [6]) was 1 µM, the “logIC50 ± SEM” value (MCF-12A cells; 72 h of incubation) was −5.981 ± 0.026 and the IC50 (MCF-12A cells; [7]) was 1 µM. The “tumor growth reduction (versus the vehicle group)” value (MDA-MB-231 breast tumors) was 56.6%, the “average tumor volumes compared to vehicle-treated control mice” value (MDA-MB-231 breast tumors) was “significantly lower” and the “VEGF secretion in cell culture medium” value [1] was “inhibited VEGF secretion in cell culture medium in a dose-dependent manner”. For the same molecule, the tumor volume reduction ([2]; first study) was 36.4%, the tumor volume reduction ([2]; second study) was 46.7% and the deaths during treatment ([2]; first study) was “two associated deaths”. The deaths during treatment ([2]; second study) was “no associated deaths”, the “liver histopathology (glycogen accumulation, PAS)” value [3, 8] was “swollen, pale and finely vacuolated cytoplasm due to intracellular accumulation of glycogen” and the “kidney histopathology (perirenal adipose tissue)” value ([3]; compared to vehicle-treated animals) was “decreased perirenal adipose tissue”. For the same molecule, the body weight [3, 9] was “slower body weight recovery”.
In the case of `NCCCNCCCCNCCCN.[Cl][Pd][Cl].[Cl][Pd][Cl]` [Pd2Spm, dinuclear palladium(II)-spermine chelate], the “growth inhibition at the highest concentration” value (MCF-12A cells; 100 µM, compared to same dosage of cisplatin) is reported as “did not produce a maximum growth inhibition”, the IC50 (MCF-12A cells; 24-72 h, read-out: IC50 values (range over incubation times)) is reported as 89.5 to 229 µM and the “logIC50 ± SEM” value (MCF-12A cells; 48 h of incubation) is reported as −4.039 ± 0.023. The IC50 (MCF-12A cells; [6]) was 91.5 µM, the “logIC50 ± SEM” value (MCF-12A cells; 72 h of incubation) was −4.048 ± 0.068 and the IC50 (MCF-12A cells; [7]) was 89.5 µM. The “tumor growth reduction (versus the vehicle group)” value (MDA-MB-231 breast tumors) was 43.3%, the “average tumor volumes compared to vehicle-treated control mice” value (MDA-MB-231 breast tumors) was “significantly lower” and the “hematologic analysis (RBC, Hb, Htc, MCV, MCH) versus vehicle” value [4] was “no significant deviations”. For the same molecule, the “plasma biochemical analysis (urea, creatinine, glucose, AST, ALT, total proteins, triglycerides, total cholesterol) versus vehicle” value [4] was “did not reveal changes”, the “VEGF secretion in cell culture medium” value [1] was “inhibited VEGF secretion in cell culture medium in a dose-dependent manner” and the “amount accumulated in breast cancer cells relative to cisplatin” value (breast cancer cells) was “approximately four times lower”. The “accumulation in major organs relative to cisplatin” value [5] was “lower accumulation in major organs”, the “serum terminal half-life relative to cisplatin” value [5] was “very similar serum terminal half-life to cisplatin” and the IC50 values (MDA-MB-231) was “within a low micromolar range”. For the same molecule, the IC50 values (MDA-MB-468 TNBC cells) was “within a low micromolar range”, the “liver histopathology (glycogen accumulation, PAS)” value [3, 8] was “not observed” and the deaths during treatment ([3]; cumulative dose of 25 mg/kg (5 mg/kg/day for 5 consecutive days)) was “no associated deaths”. The “Relative Organ Weight (%), Brain” value [3, 10] was 1.79 ± 0.16%, the “Relative Organ Weight (%), Heart” value [3, 10] was 0.53 ± 0.06% and the “Relative Organ Weight (%), Kidneys” value [3, 10] was 1.43 ± 0.10%. For the same molecule, the “Relative Organ Weight (%), Liver” value [3, 10] was 6.14 ± 0.29%, the “Relative Organ Weight (%), Lungs” value [3, 10] was 0.77 ± 0.08% and the “Relative Organ Weight (%), Spleen” value [3, 10] was 0.32 ± 0.11%. The body weight [3, 9] was “did not show changes in body weight” and the “signs of general toxicity” value [3, 9] was “no such adverse effects were observed”.
